One assay concerns the target Carbonic anhydrase 14 (Homo sapiens, UniProt Q9ULX7).
Chain of Carbonic anhydrase 14 (Q9ULX7 whole entry): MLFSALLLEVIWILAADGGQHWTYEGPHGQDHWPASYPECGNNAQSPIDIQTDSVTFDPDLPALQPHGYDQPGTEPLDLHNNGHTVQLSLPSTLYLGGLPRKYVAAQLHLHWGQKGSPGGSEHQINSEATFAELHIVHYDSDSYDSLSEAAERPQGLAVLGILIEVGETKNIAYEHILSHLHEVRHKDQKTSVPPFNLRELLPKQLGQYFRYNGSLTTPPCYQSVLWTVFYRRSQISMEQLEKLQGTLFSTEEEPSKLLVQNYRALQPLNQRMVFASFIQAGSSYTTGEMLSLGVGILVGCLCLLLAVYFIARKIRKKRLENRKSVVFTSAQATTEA
As for `Nc1nnc(S(N)(=O)=O)s1`, the Ki (in general, the dissociation constant of the complex between target and ligand, obtained from inhibition or displacement) amounted to 280 nM. On the same count and under the same terms, the figure for `Nc1ccc(S(=O)(=O)Nc2nnc(S(N)(=O)=O)s2)cc1` is 13 nM.

On to `Nc1nccc(Nc2ccc(S(N)(=O)=O)cc2)n1`, for which the Ki worked out at 89 nM.

`Nc1ccccc1S(N)(=O)=O` came in with a Ki of 6500 nM. `Nc1ccc(S(N)(=O)=O)cc1Br` displayed a Ki of 15 nM. On the same count and under the same terms, the figure for `Cn1nc(S(N)(=O)=O)sc1=N` is 245 nM; for `NS(=O)(=O)c1ccc(CCO)cc1` it is 3260 nM; for `Nc1cccc(S(N)(=O)=O)c1` it is 4800 nM. Still for that read-out and setting: for `Nc1ccc(S(N)(=O)=O)cc1F` the value was 180 nM. On the same count and under the same terms, the figure for `NS(=O)(=O)c1ccc(CO)cc1` is 3840 nM; for `Nc1ccc(S(N)(=O)=O)cc1Cl` it is 21 nM. For `Nc1ccc(S(=O)(=O)NCCc2ccc(S(N)(=O)=O)cc2)cc1`, the Ki worked out at 76 nM. The molecule `NNc1ccc(S(N)(=O)=O)cc1` had a Ki of 1450 nM. Still for that read-out and setting: the figure for `CCN[C@H]1CN(CCCOC)S(=O)(=O)c2sc(S(N)(=O)=O)cc21` [BRINZOLAMIDE] is 24 nM; for `NS(=O)(=O)c1ccc(C(=O)O)cc1` [CARZENIDE] it is 780 nM; for `NCc1ccc(S(N)(=O)=O)cc1` [MAFENIDE] it is 3200 nM.

`Nc1ccc(S(N)(=O)=O)cc1` [SULFANILAMIDE] yielded a Ki of 5400 nM.

Another assay deals with Carbonic anhydrase 12 (Homo sapiens, UniProt O43570).
Chain of Carbonic anhydrase 12 (O43570 whole entry): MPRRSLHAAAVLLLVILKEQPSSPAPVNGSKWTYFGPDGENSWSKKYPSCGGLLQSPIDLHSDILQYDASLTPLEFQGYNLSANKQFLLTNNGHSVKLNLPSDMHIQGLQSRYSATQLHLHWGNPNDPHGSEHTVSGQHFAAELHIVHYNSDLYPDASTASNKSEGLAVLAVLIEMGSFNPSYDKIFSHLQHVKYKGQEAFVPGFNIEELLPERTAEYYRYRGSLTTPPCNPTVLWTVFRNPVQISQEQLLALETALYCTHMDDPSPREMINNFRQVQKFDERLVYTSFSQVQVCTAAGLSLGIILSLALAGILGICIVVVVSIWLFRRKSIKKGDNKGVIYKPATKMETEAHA
On to `Nc1ccccc1S(N)(=O)=O`, for which the Ki turned out to be 85 nM.

As to `Nc1cccc(S(N)(=O)=O)c1`, the Ki turned out to be 125 nM. The same measure, in the same setting: the figure for `NNc1ccc(S(N)(=O)=O)cc1` is 11 nM.

The record behind these values is ChEMBL document CHEMBL1142790, “Carbonic anhydrase inhibitors: inhibition of the transmembrane isozyme XIV with sulfonamides” (Bioorg Med Chem Lett, 2005).
